The values below come from patent US20260174179A1, “ANTI-INFECTIVE SHOE SOLES” (priority 2019, published 2026).

The subject of the assay is Pseudomonas aeruginosa (PAO). As to the kind of experiment: Kirby-Bauer disk diffusion test, agar overlay culture. The class given is cell-based. As to conditions: 6 mm disk, 24 hours at 37° C. As to the method:
FIG. 13 is a schematic illustrating a Kirby-Bauer Disk Diffusion test. Bacterial cells are plated from a broth culture onto sterile agar petri dishes, and antibiotic soaked paper disks (or control disks without antibiotic) are placed directly on the dish. After 24 or more hours, a confluent layer of bacteria appear to grow up on the dish. Clearing or clear but hazy zones indicate antibiotic sensitivity of the test microbe. The size of the killing zone reflects how well the antibiotic diffuses into the agar and sensitivity of the organism.
FIG. 14A is an image showing the results of a Disk Diffusion test with Pseudomonas aeruginosa (PAO). Three disks were placed on a PAO/agar overlay culture: a penicillin-soaked paper disk, a negative control (no treatment) paper disk, and a sterile punch disk of pure elemental sheet copper, and the culture was incubated for 24 hours. Zones of inhibition are marked as clearing zones (dashed circles) where bacterial growth was stunted. […]
In some studies, a disk-diffusion test was used as a model for testing diffusion and bacterial targeting (FIG. 13). […] The bacteria were allowed to grow on the agar media, and growth was observed using a simple read-out: a zone of clearing around a disk indicated no bacterial growth, and conversely, the lack of a clearing perimeter indicated bacterial resistance. […]
Background: Agar diffusion results depend on both activity and mobility in agar.

As to penicillin, the “clearing extended from the edge of the disk” value is given as 5-7 mm. Further, the killing zone (FIG. 14A) is reported as 6 mm.
